# Test results as given in patent publication US6069128A, “Transiently membrane-permeable derivatives converted intracellularly into active peptides” (Universite Laval, priority 1998, dated 2000).
# Where no end group is shown, it is not given here.
# Test system: IL-8-induced leukocyte migration
# Assay: IL-8-induced leukocyte migration into the mouse air pouch
# Type: in vivo
# Details: BALBc mice; 100 μg peptide intravenously in the tail one hour before subdermal IL-8 (1 μg); leukocytes collected two and a half hours after IL-8
# Description: In the second series of experiments, inhibition of leukocyte migration in BALBc mice was chosen as an in vivo assay as a first step towards the use of the modified peptides in humans. 100 ug of the DRYLAIVHAT/AM peptide, diluted in cyclodextrane or polythelene glycol, was injected intravenously in the tails of BALBc mice one hour prior to the subdermal injection of IL-8. In the presence of the modified peptide, leukocyte migration was inhibited when compared to the migration observed in untreated animals (FIG. 4).
# In FIG. 4, the peak increase in leukocyte migration induced by IL-8 is shown. The peptides (100 μg) (native or transformed) were injected intravenously in the tails of the BALBC mice one hour prior to IL-8 injection. The basal cell number was 0.25×10^6 cells and the increases represent the differences between the basal and the peak levels of the leukocytes collected two and a half hours after IL-8 stimulation. The data represent the mean ±SEM of the number of experiments indicated in parenthesis.
substance,measurement,value
DRYLAIVHAT/AM: acetoxymethyl ester (AM) membrane-permeable derivative of the peptide from the second intracellular loop of the interleukin 8 type A receptor (also: acetoxymethyl ester (AM) derivative),inhibition of leukocyte migration induced by IL-8,inhibited
